Test results as given in patent US20250002512A1, “NOVEL ANTI-[…] NE[…] AND THERAPEUTIC USES THEREOF” (MARVEL BIOTECHNOLOGY, priority 2021, published 2025).

Legend:
[1] = test system: male CD-1 mice; experiment: forced swim test (FST), preclinical model of depression; type: in vivo; details: n=8/group, 50 mgs/kg orally once a day for seven days, FST on seventh day; for immobilization time (2-6 minutes): compared with fluoxetine 30 mg/kg, one-way ANOVA, Fisher LSD, FIG. 1; for latency to immobility: compared with vehicle control, FIG. 2
Procedure: The forced swim test (FST) is a widely accepted pre-clinical model to test the anti-depressive effects of molecules (Can A, Dao D T, Arad M, Terrillion C E, Piantadosi S C, Gould T D. The Mouse Forced Swim Test. J Vis Exp. 2012; (59): 3638. doi: 10.3791/3638).
Briefly, male CD-1 mice (approximately 25-35 g, n=8/group) were dosed orally once a day with either vehicle (2% aqueous DMSO, 0.5% carboxymethyl cellulose), compound 1 (50 mgs/kg in vehicle), compound 2 (50 mgs/kg in vehicle) or fluoxetine (aka. Prozac®, 30 mg/kg in vehicle) for seven days. Seven days is a comparatively short time to observe an anti-depressant effect with an orally dosed drug. On the seventh day, animals were tested in the FST and observed for abnormal behaviours (e.g. hallucinating).

[2] = target: brain derived neurotrophic factor (BDNF) receptor TrkB (Homo sapiens, UniProt Q16620); details: cited from Shen J et al.; cited from earlier work
brain derived neurotrophic factor (BDNF) receptor TrkB, sequence (Q16620 32-822): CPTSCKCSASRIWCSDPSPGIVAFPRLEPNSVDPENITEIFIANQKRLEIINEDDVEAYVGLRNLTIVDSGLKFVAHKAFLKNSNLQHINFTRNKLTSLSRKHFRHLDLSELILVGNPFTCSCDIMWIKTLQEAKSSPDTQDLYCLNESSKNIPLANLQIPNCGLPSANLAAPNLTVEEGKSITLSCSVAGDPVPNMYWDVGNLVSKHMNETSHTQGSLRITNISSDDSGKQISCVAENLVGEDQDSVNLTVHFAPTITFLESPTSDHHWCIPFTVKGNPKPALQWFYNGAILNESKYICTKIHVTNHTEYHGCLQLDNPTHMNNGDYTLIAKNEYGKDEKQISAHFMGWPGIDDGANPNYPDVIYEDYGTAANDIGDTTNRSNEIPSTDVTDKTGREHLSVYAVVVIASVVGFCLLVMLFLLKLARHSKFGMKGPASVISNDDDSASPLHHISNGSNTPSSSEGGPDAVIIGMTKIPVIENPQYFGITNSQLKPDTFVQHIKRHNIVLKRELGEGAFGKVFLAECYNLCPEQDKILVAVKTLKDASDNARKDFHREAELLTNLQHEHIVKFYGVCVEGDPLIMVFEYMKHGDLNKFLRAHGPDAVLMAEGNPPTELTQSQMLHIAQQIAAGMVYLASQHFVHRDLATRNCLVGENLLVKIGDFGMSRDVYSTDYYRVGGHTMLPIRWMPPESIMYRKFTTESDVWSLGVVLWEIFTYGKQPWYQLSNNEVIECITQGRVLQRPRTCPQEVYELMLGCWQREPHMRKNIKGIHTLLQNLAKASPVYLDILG

| Compound | immobilization time (2-6 minutes) [1] | latency to immobility [1] | activation of BDNF receptor TrkB [2] |
| --- | --- | --- | --- |
| O=C1NCCCC1C(=O)NCCc1c[nH]c2ccc(OP(=O)(O)O)cc12 (centres unmarked) [Compound 1, N-{2-[5-(Dihydroxyphosphoryloxy)-1H-indol-3-yl]ethyl}-2-oxo-3-piperidinecarboxamide] | significantly better than fluoxetine | better than vehicle control |  |
| O=C(CN1CCCC1=O)NCCc1c[nH]c2ccc(OP(=O)(O)O)cc12 [Compound 2, N-{2-[5-(dihydroxyphosphoryloxy)-1H-indol-3-yl]ethyl}(2-oxo-1-pyrrolidinyl) acetamide] | significantly better than fluoxetine | better than vehicle control |  |
| N-[2-(5-hydroxy-1H-indol-3-yl)ethyl]-2-oxopiperidine-3-carboxyamide [HIOC] |  |  | activate |
